Earlier results as cited in PubChem BioAssay AID1259409 (Chemical Carcinogenesis Research Information System (CCRIS), 2018).

Tested on: rodent chemically induced tumor inhibition, incidence and multiplicity
Test: CCRIS tumor inhibitor studies

Structure (SMILES): CC(=O)N[C@@H](CS)C(=O)O
- tumour outcome (control, treated, inhibition, significance) (Carcinogen: 4-(METHYLNITROSAMINO)-1-(3-PYRIDYL)-1-BUTANONE [64091-50-5], Dose [Inhibitor]: 80 MMOL/KG IN DIET FOR 17 WK BEGINNING 1 WK PRIOR TO FIRST CARCINOGEN DOSE (STUDY DURATION: 17 WK), Route [Inhibitor]: ORAL, Species: MOUSE, Strain/Sex: A/J/FEMALE, Target Tissue: Type of Lesion: LUNG: ADENOMA, Dose [Carcinogen]: 10 UMOL ONCE 1 WK POST FIRST INHIBITOR DOSE (STUDY DURATION: 17 WK), Promoter: NONE): 100%, 100%, 0%, not significant
- tumour outcome (control, treated, inhibition, significance) (Carcinogen: 4-(METHYLNITROSAMINO)-1-(3-PYRIDYL)-1-BUTANONE [64091-50-5], Dose [Inhibitor]: 80 MMOL/KG IN DIET FOR 53 WK BEGINNING 1 WK PRIOR TO FIRST CARCINOGEN DOSE (STUDY DURATION: 53 WK), Route [Inhibitor]: ORAL, Species: MOUSE, Strain/Sex: A/J/FEMALE, Target Tissue: Type of Lesion: LUNG: ADENOMA OR ADENOCARCINOMA, Dose [Carcinogen]: 10 UMOL ONCE 1 WK POST FIRST INHIBITOR DOSE (STUDY DURATION: 53 WK), Promoter: NONE): 100%, 93%, 7%, not significant
- tumour outcome (control, treated, inhibition, significance) (Carcinogen: 4-(METHYLNITROSAMINO)-1-(3-PYRIDYL)-1-BUTANONE [64091-50-5], Dose [Inhibitor]: 160 MMOL/KG IN DIET FOR 17 WK BEGINNING 1 WK PRIOR TO FIRST CARCINOGEN DOSE (STUDY DURATION: 17 WK), Route [Inhibitor]: ORAL, Species: MOUSE, Strain/Sex: A/J/FEMALE, Target Tissue: Type of Lesion: LUNG: ADENOMA, Dose [Carcinogen]: 10 UMOL ONCE 1 WK POST FIRST INHIBITOR DOSE (STUDY DURATION: 17 WK), Promoter: NONE): 100%, 100%, 0%, not significant
- tumour outcome (control, treated, inhibition, significance) (Carcinogen: 4-(METHYLNITROSAMINO)-1-(3-PYRIDYL)-1-BUTANONE [64091-50-5], Dose [Inhibitor]: 160 MMOL/KG IN DIET FOR 53 WK BEGINNING 1 WK PRIOR TO FIRST CARCINOGEN DOSE (STUDY DURATION: 53 WK), Route [Inhibitor]: ORAL, Species: MOUSE, Strain/Sex: A/J/FEMALE, Target Tissue: Type of Lesion: LUNG: ADENOMA OR ADENOCARCINOMA, Dose [Carcinogen]: 10 UMOL ONCE 1 WK POST FIRST INHIBITOR DOSE (STUDY DURATION: 53 WK), Promoter: NONE): 100%, 97%, 3%, not significant
- tumour outcome (control, treated, inhibition, significance) (Carcinogen: 4-(METHYLNITROSAMINO)-1-(3-PYRIDYL)-1-BUTANONE, 64091-91-4, Dose [Inhibitor]: 0, 6528 PPM IN DIET FOR 22 WK BEGINNING 1 WK PRIOR TO CARCINOGEN TREATMENT (STUDY DURATION: 98 WK), Route [Inhibitor]: ORAL, Species: RAT, Strain/Sex: F344/MALE, Target Tissue: Type of Lesion: LUNG: TUMOR, Dose [Carcinogen]: 1.5 MG/KG BW 3/WK FOR 20 WK, Promoter: NONE USED): 22/33 (67%), 22/36 (61%), 9%, not significant
- tumour outcome (control, treated, inhibition, significance) (Carcinogen: 4-(METHYLNITROSAMINO)-1-(3-PYRIDYL)-1-BUTANONE, 64091-91-4, Dose [Inhibitor]: 0, 6528 PPM IN DIET FOR 22 WK BEGINNING 1 WK PRIOR TO CARCINOGEN TREATMENT (STUDY DURATION: 98 WK), Route [Inhibitor]: ORAL, Species: RAT, Strain/Sex: F344/MALE, Target Tissue: Type of Lesion: NASAL CAVITY: TUMOR, Dose [Carcinogen]: 1.5 MG/KG BW 3/WK FOR 20 WK, Promoter: NONE USED): 28/36 (78%), 22/36 (61%), 22%, not significant
- tumour outcome (control, treated, inhibition, significance) (Carcinogen: 4-(METHYLNITROSAMINO)-1-(3-PYRIDYL)-1-BUTANONE, 64091-91-4, Dose [Inhibitor]: 0, 13056 PPM IN DIET FOR 22 WK BEGINNING 1 WK PRIOR TO CARCINOGEN DOSE (STUDY DURATION: 98 WK), Route [Inhibitor]: ORAL, Species: RAT, Strain/Sex: F344/MALE, Target Tissue: Type of Lesion: NASAL CAVITY: TUMOR, Dose [Carcinogen]: 1.5 MG/KG BW 3/WK FOR 20 WK, Promoter: NONE USED): 28/36 (78%), 17/36 (47%), 40%, not significant
- tumour outcome (control, treated, inhibition, significance) (Carcinogen: 4-(METHYLNITROSAMINO)-1-(3-PYRIDYL)-1-BUTANONE, 64091-91-4, Dose [Inhibitor]: 0, 13056 PPM IN DIET FOR 22 WK BEGINNING 1 WK PRIOR TO CARCINOGEN TREATMENT (STUDY DURATION: 98 WK), Route [Inhibitor]: ORAL, Species: RAT, Strain/Sex: F344/MALE, Target Tissue: Type of Lesion: LUNG: TUMOR, Dose [Carcinogen]: 1.5 MG/KG BW 3/WK FOR 20 WK, Promoter: NONE USED): 22/33 (67%), 21/36 (58%), 13%, not significant
- tumour outcome (control, treated, inhibition, significance) (Carcinogen: 7,12-DIMETHYLBENZ[A]ANTHRACENE, 57-97-6, Dose [Inhibitor]: 0, 4000 PPM IN DIET FOR DURATION OF STUDY BEGINNING 1 WK PRIOR TO CARCINOGEN DOSE (STUDY DURATION: 107 D), Route [Inhibitor]: ORAL, Species: RAT, Strain/Sex: SPRAGUE-DAWLEY/FEMALE, Target Tissue: Type of Lesion: MAMMARY GLAND: ADENOCARCINOMA, Dose [Carcinogen]: 12 MG ONCE, Promoter: NONE USED): 92%, 88%, 4%, not significant
- tumour outcome (control, treated, inhibition, significance) (Carcinogen: 7,12-DIMETHYLBENZ[A]ANTHRACENE, 57-97-6, Dose [Inhibitor]: 0, 8000 PPM IN DIET FOR DURATION OF STUDY BEGINNING 1 WK PRIOR TO CARCINOGEN DOSE (STUDY DURATION: 107 D), Route [Inhibitor]: ORAL, Species: RAT, Strain/Sex: SPRAGUE-DAWLEY/FEMALE, Target Tissue: Type of Lesion: MAMMARY GLAND: ADENOCARCINOMA, Dose [Carcinogen]: 12 MG ONCE, Promoter: NONE USED): 92%, 92%, 0%, not significant
- tumour outcome (control, treated, inhibition, significance) (Carcinogen: AZOXYMETHANE, 25843-45-2, Dose [Inhibitor]: 0, 600 PPM IN DIET BEGINNING 2 WK PRIOR TO CARCINOGEN TREATMENT AND CONTINUING FOR DURATION OF STUDY (STUDY DURATION: 56, Route [Inhibitor]: ORAL, Species: RAT, Strain/Sex: F344/MALE, Target Tissue: Type of Lesion: COLON: INVASIVE ADENOCARCINOMA, Dose [Carcinogen]: 15 MG/KG 1/WK FOR 2 WK, Promoter: NONE USED): 34%, 22%, 35%, not significant
- tumour outcome (control, treated, inhibition, significance) (Carcinogen: AZOXYMETHANE, 25843-45-2, Dose [Inhibitor]: 0, 600 PPM IN DIET BEGINNING 2 WK PRIOR TO CARCINOGEN TREATMENT AND CONTINUING FOR DURATION OF STUDY (STUDY DURATION: 56, Route [Inhibitor]: ORAL, Species: RAT, Strain/Sex: F344/MALE, Target Tissue: Type of Lesion: COLON: NONINVASIVE ADENOCARCINOMA, Dose [Carcinogen]: 15 MG/KG 1/WK FOR 2 WK, Promoter: NONE USED): 53%, 44%, 17%, not significant
- tumour outcome (control, treated, inhibition, significance) (Carcinogen: AZOXYMETHANE, 25843-45-2, Dose [Inhibitor]: 0, 1200 PPM IN DIET BEGINNING 2 WK PRIOR TO CARCINOGEN TREATMENT AND CONTINUING FOR DURATION OF STUDY (STUDY DURATION: 5, Route [Inhibitor]: ORAL, Species: RAT, Strain/Sex: F344/MALE, Target Tissue: Type of Lesion: COLON: INVASIVE ADENOCARCINOMA, Dose [Carcinogen]: 15 MG/KG 1/WK FOR 2 WK, Promoter: NONE USED): 34%, 19%, 44%, not significant
- tumour outcome (control, treated, inhibition, significance) (Carcinogen: AZOXYMETHANE, 25843-45-2, Dose [Inhibitor]: 0, 1200 PPM IN DIET BEGINNING 2 WK PRIOR TO CARCINOGEN TREATMENT AND CONTINUING FOR DURATION OF STUDY (STUDY DURATION: 5, Route [Inhibitor]: ORAL, Species: RAT, Strain/Sex: F344/MALE, Target Tissue: Type of Lesion: COLON: NONINVASIVE ADENOCARCINOMA, Dose [Carcinogen]: 15 MG/KG 1/WK FOR 2 WK, Promoter: NONE USED): 53%, 42%, 21%, not significant
- tumour outcome (control, treated, inhibition, significance) (Carcinogen: DIETHYLNITROSAMINE, 55-18-5, Dose [Inhibitor]: 0, 30 MG/KG BW BY INTRAPERITONEAL INJECTION ON DAYS 13, 14 AND 15 OF AGE THEN 2 G/KG DIET FROM 21 TO 161 DAYS OF AGE (ST, Route [Inhibitor]: INTRAPERITONEAL, ORAL, Species: MOUSE, Strain/Sex: C3H/MALE, Target Tissue: Type of Lesion: LIVER: ADENOMA, Dose [Carcinogen]: 4 MG/KG IN TRICAPRYLIN ONCE ON DAY 15 OF AGE, Promoter: NONE USED): 100%, 100%, 0%, not significant

Structure (SMILES): CCCCCCCCCCCCCCCCCCCCCC(O)CC(O)CCCCC (stereo not drawn)
- tumour outcome (control, treated, inhibition, significance) (Carcinogen: 7,12-DIMETHYLBENZ[A]ANTHRACENE, 57-97-6, Dose [Inhibitor]: 0, 2 UMOL APPLIED 30 MIN PRIOR TO EACH PROMOTER DOSE 2/WK FOR 20 WK BEGINNING 7 D POST CARCINOGEN DOSE (STUDY DURATION:, Route [Inhibitor]: DERMAL, Species: MOUSE, Strain/Sex: ICR/FEMALE, Target Tissue: Type of Lesion: SKIN: PAPILLOMA, Dose [Carcinogen]: 50 UG IN 100 µL ACETONE ONCE, Promoter: 12-O-TETRADECANOLYPHORBOL-13-ACETATE, 16561-29-8): 93%, 20%, 78%, not significant

Structure (SMILES): CCCCCCCCCCCCCCCC(=O)OC[C@H](O)[C@H]1OC(=O)C(O)=C1O
- tumour outcome (control, treated, inhibition, significance) (Carcinogen: 7,12-DIMETHYLBENZ[A]ANTHRACENE, 57-97-6, Dose [Inhibitor]: 0, 1 UMOL 1/WK 5 MIN PRIOR TO EACH PROMOTER DOSE BEGINNING 2 WK POST CARCINOGEN DOSE AND CONTINUING FOR 27 WK (STUDY DUR, Route [Inhibitor]: DERMAL, Species: MOUSE, Strain/Sex: SENCAR/FEMALE, Target Tissue: Type of Lesion: SKIN: PAPILLOMA, Dose [Carcinogen]: 25 NMOL ONCE, Promoter: CHRYSAROBIN, 491-58-7): 100%, 88%, 12%, not significant
- tumour outcome (control, treated, inhibition, significance) (Carcinogen: 7,12-DIMETHYLBENZ[A]ANTHRACENE, 57-97-6, Dose [Inhibitor]: 0, 4 UMOL 1/WK 5 MIN PRIOR TO EACH PROMOTER DOSE BEGINNING 2 WK POST CARCINOGEN DOSE AND CONTINUING FOR 27 WK (STUDY DUR, Route [Inhibitor]: DERMAL, Species: MOUSE, Strain/Sex: SENCAR/FEMALE, Target Tissue: Type of Lesion: SKIN: PAPILLOMA, Dose [Carcinogen]: 25 NMOL ONCE, Promoter: CHRYSAROBIN, 491-58-7): 100%, 90%, 10%, not significant
